Laboratory results reported in patent publication US5177082A, “Huperzines and analogs” (priority 1990, dated 1993).
“Also recorded” adds a separate entry of the source. Like-named read-outs stand apart in the source and are kept apart here.

Legend:
dogs = assay: Subacute toxicity in dogs; assay type: in vivo, dog
From the text: Rabbits and dogs: there were 20 rabbits divided into four groups. […] The control group was given im injections of distilled water. […] When the time arrived, the rabbits and dogs were dissected. The routine blood tests glutamic-pyruvic transaminase, zinc turbidity, urea nitrogen and creatinine were all normal. […] The stimulation of the latter was even more outstanding.

Rats = conditions: rat, in vivo
patients = assay: Clinical side effects in patients with myasthenia gravis; assay type: in vivo, human
Method: Patients affected with myasthenia gravis (MG) with typical clinical symptoms which improved after using neostigmine were the subjects for testing and verification. […] It was generally used for at least ten days and each dosage was 0.4-0.5 mg. […] The injections were all given in the morning and on the morning prior to the injections anticholinesterase drugs were discontinued. Neither the patients nor the doctors knew which drug was being injected. Later, the symptoms, the duration of the improvements, if any, which were obtained by the drugs and the side effects were recorded. Based on these factors, the relative merits of the two drugs were established.

memory functions of rats = assay: Memory function of preconditioned rats after 48 hours; assay type: in vivo, rat
Method: To evaluate the impact on the memory function, preconditioned animals going through 5 shock-free runs were used as learned animals. After 48 hours the drug-free (control) animals required 14.4±8.9 shocks to become learned.

Fetus of Pregnant Mice = conditions: mouse, in vivo
From the text: […]. […] The latter produced various types of externally observed deformities: short tails (44/97), short and no tails (18/97), back legs reversed (13/97), open eyes (7/97), exposed brains and spina bifida (1/97), sunken noses (1/97) and cleft palates (39/40). […].

[1] = system: Sciatic Nerve/Tibialis Muscle Preparation; assay: Anesthetized rabbit sciatic nerve/tibialis muscle preparation; assay type: in vivo; conditions: rabbits
Method: Anesthesized Rat and Rabbit Sciatic Nerve/Tibialis Muscle Preparation
Anesthesia was produced in rats by ip injections of 30 mg/kg of pentobarbital and in rabbits by iv injections of 1 g/kg of urethane. Electric stimulation of the periphery of the sciatic nerve (5-10 V, 0.5 ms, 1 c/10 s) caused tibialis contraction which was recorded on smoked paper.

Mice = conditions: mouse, in vivo

C/C=C1\[C@H]2C=C(C)C[C@]1(N)c1ccc(=O)[nH]c1C2 [Huperzine A, (5R, 9R, 11E)-5-amino-11-ethylidene-5,6,9,10-tetrahydro-7-methyl-5,9-methanocycloocta[b]pyridin-2(1H)-one]
microscopic examination, heart (dogs; dogs): light fat infiltration | routine blood tests, glutamic-pyruvic transaminase, zinc turbidity, urea nitrogen and creatinine (dogs; dogs): all normal | symptoms (dogs; dogs, 0.6 mg/kg im, 180 days): noticeable whole body muscle fiber twitching | ECG (dogs; dogs, im 180 days): no drug induced abnormalities | pathological changes of internal organs (dogs; dogs, six months, 90 times (MG) / 750 times (senile dementia) clinical dosage): no noticeable pathological changes of internal organs were observed | abnormalities (dogs; dogs, small dosages (0.3 mg/kg im), 180 days): No abnormalities were observed | microscopic examination, cerebral cortex (dogs; each dosage group of dogs): cerebral spongiocyte growth and myophagia | Toxic Strength (Rats): 1.00 | nausea vs neostigmine (patients; X^2 =15, P<0.001): more apt to cause nausea than was neostigmine | Abdominal pains, % (patients; control group): 5.9% | Abdominal pains, number of times (patients; control group): 21 | Blurred vision, % (patients; control group): 3.2% | Blurred vision, number of times (patients; control group): 11 | Changes in the rhythm of the heart, % (patients; control group): 3.1% | Changes in the rhythm of the heart, number of times (patients; control group): 11 | Disturbed sleep, % (patients; control group): 0.8% | Disturbed sleep, number of times (patients; control group): 3 | Dizziness, % (patients; control group): 20.3% | Dizziness, number of times (patients; control group): 72 | Drooling, % (patients; control group): 3.5% | Drooling, number of times (patients; control group): 9 | Increase in the number of bowel movements, % (patients; control group): 2.8% | Increase in the number of bowel movements, number of times (patients; control group): 10 | Muscle bundle quivering, % (patients; control group): 10.4% | Muscle bundle quivering, number of times (patients; control group): 37 | Myosis, % (patients; control group): 3.0% | Myosis, number of times (patients; control group): 13 | Nausea, % (patients; control group): 12.9% | Nausea, number of times (patients; control group): 46 | Perspiring, % (patients; control group): 7.0% | Perspiring, number of times (patients; control group): 25 | Tinnitus, % (patients; control group): 3.7% | Tinnitus, number of times (patients; control group): 13 | Vomiting, % (patients; control group): 2.8% | Vomiting, number of times (patients; control group): 10 | cases with side effects (patients; control patients, 69 cases): 45 cases | cases with side effects, % (patients; control patients, 69 cases, X^2 =3.58, P>0.05): 65.21% | side effects other than nausea vs neostigmine (patients; muscle bundle quivering, dizziness, perspiring, blurred vision): lower side effects for each of the other items than neostigmine; also recorded: statistically lower than neostigmine; also recorded: lower side effects in all other areas than neostigmine | Abdominal pains, % (patients; noncontrol group, 128 cases): 6.5% | Abdominal pains, number of times (patients; noncontrol group, 128 cases): 80 | Blurred vision, % (patients; noncontrol group, 128 cases): 1.8% | Blurred vision, number of times (patients; noncontrol group, 128 cases): 22 | Changes in the rhythm of the heart, % (patients; noncontrol group, 128 cases): 1.0% | Changes in the rhythm of the heart, number of times (patients; noncontrol group, 128 cases): 13 | Disturbed sleep, % (patients; noncontrol group, 128 cases): 0.4% | Disturbed sleep, number of times (patients; noncontrol group, 128 cases): 5 | Dizziness, % (patients; noncontrol group, 128 cases): 8.1% | Dizziness, number of times (patients; noncontrol group, 128 cases): 100 | Drooling, % (patients; noncontrol group, 128 cases): 2.0% | Drooling, number of times (patients; noncontrol group, 128 cases): 25 | Increase in the number of bowel movements, % (patients; noncontrol group, 128 cases): 0.5% | Increase in the number of bowel movements, number of times (patients; noncontrol group, 128 cases): 11 | Muscle bundle quivering, % (patients; noncontrol group, 128 cases): 4.0% | Myosis, % (patients; noncontrol group, 128 cases): 1.0% | Myosis, number of times (patients; noncontrol group, 128 cases): 13 | Nausea, % (patients; noncontrol group, 128 cases): 7.8% | Nausea, number of times (patients; noncontrol group, 128 cases): 95 | Perspiring, % (patients; noncontrol group, 128 cases): 4.8% | Perspiring, number of times (patients; noncontrol group, 128 cases): 59 | Tinnitus, % (patients; noncontrol group, 128 cases): 3.1% | Tinnitus, number of times (patients; noncontrol group, 128 cases): 38 | Vomiting, % (patients; noncontrol group, 128 cases): 1.2% | Vomiting, number of times (patients; noncontrol group, 128 cases): 15 | shocks required to achieve the learned state (memory) (memory functions of rats; 0.03 mg/kg, ip, after 48 hours): 6.8±7.2 shocks | memory functions (Y-maze and brightness discrimination test) (memory functions of rats; normal male rats, 1/138 of the LD50 dosage): can strengthen the memory functions | number of embryo absorptions and stillborn fetuses vs control (Fetus of Pregnant Mice): markedly greater than those of the control group | abnormal embryos (Fetus of Pregnant Mice; ip): Neither of the two methods of giving the drug resulted in abnormal embryos | Body length of fetus (Fetus of Pregnant Mice; ip, 0.019 mg/kg): 2.2 ± 0.3 cm | Body weight of fetus (Fetus of Pregnant Mice; ip, 0.019 mg/kg): 1.24 ± 0.22 g | Number absorbed (Fetus of Pregnant Mice; ip, 0.019 mg/kg): 1.0 ± 1.7 | Number of fetuses (Fetus of Pregnant Mice; ip, 0.019 mg/kg): 8 ± 3 | number of stillbirths (Fetus of Pregnant Mice; ip, 0.019 mg/kg): 0.22 ± 0.44 | Body length of fetus (Fetus of Pregnant Mice; ip, 0.038 mg/kg): 2.2 ± 0.3 cm | Body weight of fetus (Fetus of Pregnant Mice; ip, 0.038 mg/kg): 1.2 ± 0.2 g | Number absorbed (Fetus of Pregnant Mice; ip, 0.038 mg/kg): 0.5 ± 0.8 | Number of fetuses (Fetus of Pregnant Mice; ip, 0.038 mg/kg): 8 ± 2 | number of stillbirths (Fetus of Pregnant Mice; ip, 0.038 mg/kg): 0.22 ± 0.44 | Body length of fetus (Fetus of Pregnant Mice; ip, 0.08 mg/kg): 2.3 ± 0.1 cm | Body weight of fetus (Fetus of Pregnant Mice; ip, 0.08 mg/kg): 1.2 ± 0.1 g | Number absorbed (Fetus of Pregnant Mice; ip, 0.08 mg/kg): 0 | Number of fetuses (Fetus of Pregnant Mice; ip, 0.08 mg/kg): 9 ± 2 | number of stillbirths (Fetus of Pregnant Mice; ip, 0.08 mg/kg): 0.17 ± 0.39 | Body length of fetus (Fetus of Pregnant Mice; ip, 0.19 mg/kg): 2.1 ± 0.2 cm | Body weight of fetus (Fetus of Pregnant Mice; ip, 0.19 mg/kg): 1.0 ± 0.2 g | Number absorbed (Fetus of Pregnant Mice; ip, 0.19 mg/kg): 0.73 ± 1.7 | Number of fetuses (Fetus of Pregnant Mice; ip, 0.19 mg/kg): 9 ± 4 | number of stillbirths (Fetus of Pregnant Mice; ip, 0.19 mg/kg): 0.13 ± 0.35 | Body length of fetus (Fetus of Pregnant Mice; ip, 0.38 mg/kg): 2.0 ± 0.3 cm | Body weight of fetus (Fetus of Pregnant Mice; ip, 0.38 mg/kg): 1.1 ± 0.3 g | Number absorbed (Fetus of Pregnant Mice; ip, 0.38 mg/kg): 2.1 ± 2.4 | Number of fetuses (Fetus of Pregnant Mice; ip, 0.38 mg/kg): 6 ± 4 | number of stillbirths (Fetus of Pregnant Mice; ip, 0.38 mg/kg): 0.8 ± 1.1 | Body length of fetus (Fetus of Pregnant Mice; ip, 0.39 mg/kg): 1.9 ± 0.1 cm | Body weight of fetus (Fetus of Pregnant Mice; ip, 0.39 mg/kg): 0.95 ± 0.18 g | Number absorbed (Fetus of Pregnant Mice; ip, 0.39 mg/kg): 0.75 ± 1.0 | Number of fetuses (Fetus of Pregnant Mice; ip, 0.39 mg/kg): 8 ± 4 | number of stillbirths (Fetus of Pregnant Mice; ip, 0.39 mg/kg): 0.9 ± 1.1 | minimal effective dose ([1]; Oryctolagus cuniculus, iv, read-out: Lowest Effective Dosage for Enhancing Muscle Contraction): 0.03 mg/kg | Strength of Effect ([1]; galanthamine = 1.0): 16.6 | effect on electrically stimulated muscle contraction ([1]; iv (Huperzine A 30 μg/kg)): enhancement of the amplitude of the electrically stimulated muscle contraction | Strength of Effect ([1]; physostigmine = 1.0): 4 | Toxic Strength (Mice): 1.00 | symptoms after single toxic dose (Mice): typical symptoms of cholinesterase inhibitor poisoning, such as whole body muscle fiber twitching, drooling, tears, increase bronchial secretions and incontinence of feces and urine
